Test results: US20210393793A1, “AXL-SPECIFIC ANTIBODIES FOR TREATMENT OF NON-SMALL CELL LUNG CANCER” (priority 2018, published 2021)
Entries after “also recorded” stand apart in the source; their conditions may differ.

Assays:
[1] = tested on: patients with solid tumors; experiment: Dose escalation: anti-tumor response (RECIST v1.1); assay type: in vivo, human; conditions: for patients with a partial response: 1Q3W arm
Excerpt: (§1) Secondary Endpoints • Safety laboratory parameters (hematology and biochemistry). • PK parameters (clearance, volume of distribution and area-under-the-concentration-time curve [AUC0-Clast and AUC0-∞], maximum concentration [Cmax], time of Cmax [Tmax], pre dose values, and half-life of HuMax-AXL-ADC and free toxin monomethyl auristatin E [MMAE]). • Immunogenicity of HuMax-AXL-ADC (anti-drug antibodies). • Anti-tumor activity measured by tumor shrinkage (based on computerized tomography [CT]-scan evaluations), as well as change in CA 125 in patients with ovarian cancer and change in prostate specific antigen (PSA) in patients with castration-resistant prostate cancer (CRPC). • Objective Response, Progression-Free Survival (PFS), Duration of Response (DoR) and Overall survival (OS). • Axl expression in the tumor biopsy.
(§2) Response in solid tumor cancers was assessed in accordance with the RECIST criteria version 1.1^18 and for patients with ovarian cancer according to RECIST 1.1 in combination with CA 125 as defined by the Gynecological Cancer Intergroup^2.
In the dose escalation, response evaluation was performed by the investigator and sponsor. In the expansion, response evaluation was performed by the investigator and sponsor as well as a group of external medical experts. Each patient was assigned one of the following categories:
Patients in response categories 1 and 2 were considered responders and patients in response categories 4 and 5 were considered as failing to respond to treatment (disease progression). Patients in response categories 1, 2 and 3 were considered to be in disease control.

cynomolgus monkeys = experiment: Toxicokinetic and toxicology data in cynomolgus monkeys; assay type: in vivo
[2] = Phase I dose escalation: PK parameters; assay type: in vivo, human; conditions: across doses/schedules
Excerpt: as §1

[3] = tested on: NSCLC patients without sensitizing EGFR mutations or ALK rearrangements; experiment: Expansion cohort 2: response (RECIST v1.1); assay type: in vivo, human
Excerpt: (§3) Patients had to meet all of the following inclusion criteria before they will be allowed to participate in the trial: • 1. For the dose escalation part: Patients with relapsed or refractory cancer of the ovary, cervix, endometrium, thyroid, non-small cell lung cancer (NSCLC), or melanoma (cutaneous, mucosal, acral or uveal melanoma) who have failed available standard therapy or who are not candidates for standard therapy, and for whom, in the opinion of the investigator, experimental therapy with HuMax-AXL-ADC may be beneficial. • For the expansion part: Patients with relapsed or refractory, advanced and/or metastatic cancer who were not candidates for standard therapy, and for whom, in the opinion of the investigator, experimental therapy with HuMax-AXL-ADC could be beneficial. […] Cohorts 1 and 2 included non-small cell lung cancer patients who had failed anticancer therapy as follows: • Expansion Cohort 1 (NSCLC patients with classical sensitizing EGFR mutations and/or other EGFR resistance mutations targeted by third generation TKIs (e.g. T790M for osimertinib)): • NSCLC patients after failure of up to 4 prior treatment regimens containing systemic therapy for metastatic disease • adjuvant and maintenance treatment is considered being part of one treatment regimen. • Documented progressive disease on or after last prior treatment • Last prior treatment to enrolment to GCT1021-01 should have been: • an EGFR inhibitor (e.g. Erlotinib, Osimertinib, etc.), • or a PD-1/PD-L1 inhibitor, • or a platinum-based doublet chemotherapy. • Expansion Cohort 2 (NSCLC patients without sensitizing EGFR mutations or ALK rearrangements) • NSCLC patients after failure of up to 4 prior treatment regimens containing systemic therapy for metastatic disease. • adjuvant and maintenance treatment is considered being part of one treatment regimen. • Documented progressive disease on or after last prior treatment. • Last prior treatment to enrolment to GCT1021-01 should have been • a PD-1/PD-L1 inhibitor. • or a chemotherapy (containing platinum, and/or taxane, and/or pemetrexed, and/or gemcitabine). • For the following conditions in Expansion Cohorts 1-2, the sponsor medical officer's approval of enrolment was needed: • if documented progression had not been on measurable disease (i.e. symptomatic progression). • if last prior treatment to enrolment was a combination therapy which contained an EGFR inhibitor or a PD-1/PD-L1 inhibitor. • if last prior treatment to enrolment contain chemotherapies other than platinum, and/or taxane, and/or pemetrexed, and/or gemcitabine (only applicable for NSCLC patients without sensitizing EGFR mutations or ALK rearrangements). • 2. […] In the dose escalation part all patients were required provide a tumor tissue sample (Formalin Fixed Paraffin Embedded blocks/slides) from archival tissue or fresh biopsy collected before Cycle 1, Visit 1, preferably derived from advanced disease stage. In the expansion part all patients were required to provide a fresh biopsy (aspirates were not acceptable) taken after failure/stop of last prior treatment. Furthermore the latest available tumor tissue sample had to be collected if available. • 4. Age 18 years. • 5. Have an acceptable renal function defined as: • Glomerular filtration rate (GFR)≥40 mL/min/1.73 m^2—e.g., according to the abbreviated Modification of Diet in Renal Disease (MDRD) equation: GFR=186×(SCr^−1.154)×(age^−0.203)(where SCr, the serum creatinine level, is expressed in mg/dL; multiply it by 0.742 if the patient was female; multiply it by 1.212, if the patient was African-American^3). • Not being on dialysis. • 6. Have an acceptable liver function defined as: • Alanine aminotransferase (ALT) and aspartate aminotransferase (AST)≤3 times the ULN; if liver tumor/metastases were present, then ≤5×ULN was allowed. • Bilirubin≤1.5×ULN, except in patients diagnosed with Gilbert's syndrome, direct bilirubin≤2×ULN. • 7. […]

[4] = tested on: non-small cell lung andenocarcinoma patients; experiment: Subject examples: treatment emerging events; assay type: in vivo, human; conditions: listed as enapotamab vendotin
Excerpt: (§4) Primary Endpoints • Dose Limiting Toxicities (DLTs) • Adverse events (AEs): incidences of AEs, serious adverse events (SAEs), infusion-related AEs, grade 3 AEs, and AEs related to IMP during the trial.

[5] = tested on: EGFR mutated NSCLC patients; experiment: Expansion cohort 1: response (RECIST v1.1); assay type: in vivo, human
Excerpt: as §3, with “5.” for “5. Have an acceptable renal function defined as: • Glomerular filtration rate (GFR)≥40 mL/min/1.73 m^2—e.g., according to the abbreviated Modification of Diet in Renal Disease (MDRD) equation: GFR=186×(SCr^−1.154)×(age^−0.203)(where SCr, the serum creatinine level, is expressed in mg/dL; multiply it by 0.742 if the patient was female; multiply it by 1.212, if the patient was African-American^3). • Not being on dialysis. • 6. Have an acceptable liver function defined as: • Alanine aminotransferase (ALT) and aspartate aminotransferase (AST)≤3 times the ULN; if liver tumor/metastases were present, then ≤5×ULN was allowed. • Bilirubin≤1.5×ULN, except in patients diagnosed with Gilbert's syndrome, direct bilirubin≤2×ULN. • 7.”

[6] = tested on: patients with solid tumors; experiment: Phase I dose escalation: DLTs, MTD, RP2D, adverse events; assay type: in vivo, human
Excerpt: The present study was an open label, multi-center Phase I/IIa safety trial of HuMax AXL ADC in a mixed population of patients with solid tumors known from the literature to overexpress Axl and where the use of systemic tubulin inhibitors is part of Standard of Care (SoC). The trial consisted of two parts; a dose escalation part (phase I, first-in-human (FIH)) and an expansion part (phase IIa).
The dose escalation part consists of two, staggered, arms for identification of the most optimal dosing regimen: • 1Q3W: Dosing once every 3 weeks • 3Q4W: Weekly dosing for 3 weeks followed by one treatment-free week.
The 1Q3W dose escalation evaluated HuMax-AXL-ADC at seven main dose levels: 0.3, 0.6, 1.0, 1.5, 2.0, 2.4 and 2.8 mg/kg, and 4 optional intermediate dose levels 1.25, 1.8, 2.2 and 2.6 mg/kg. Further escalation with steps of 0.4 mg/kg and de-escalation by 0.2 mg/kg was allowed, if the MTD had not been declared at a dose level up to 2.8 mg/kg.
In the 1Q3W dose escalation the patients received 1 infusion of HuMax-AXL-ADC every three weeks as according to FIG. 2.
The 3Q4W dose escalation was conducted as a standard 3 (+3) design which evaluatedHuMax-AXL-ADC at doses of (0.45), 0.6, 0.8, 1.0, 1.2 and 1.4 mg/kg. The escalation was allowed to continue to higher dose levels with increments up to 20%, if the 1.4 mg/kg was reached without significant safety concerns and it was considered safe to escalate above 1.4 mg/kg, the. The starting dose was expected to be 0.6 mg/kg (a dose level of 0.45 mg/kg could be added) and as an additional precaution, the independent Data Monitoring Committee (DMC) could recommend intermediate dose levels at any step during dose escalation.
In the 3Q4W dose escalation the patients received weekly dosing for 3 weeks followed by one treatment-free week according to FIG. 3. Patients were treated until disease progression or unacceptable toxicity was observed.
as §4

[7] = tested on: non-small cell lung andenocarcinoma; experiment: Subject examples: tumor assessments by scan (RECIST 1.1); assay type: in vivo, human
Method: as §2
Tumor shrinkage (based on CT-scan evaluations) was listed and summarized, per source (radiologist, central read).

[8] = 34 patients treated in expansion
[9] = 36 patients treated with 2.2 mg/kg (escalation+expansion)
[10] = of 34 patients treated in expansion
[11] = of 36 patients treated with 2.2 mg/kg (escalation+expansion)

## Enapotamab vedotin [HuMax-AXL-ADC]
[1]; NSCLC, 2.2 mg/kg dose
  patients with a partial response: 1
[1]; all tumor types
  patients with a partial response: Three
[1]; ovarian, 1.5 and 2.4 mg/kg dose levels
  patients with a partial response: 2
[1]; single agent, pre-treated patients with solid tumors
  antitumor activity: encouraging preliminary antitumor activity
Cynomolgus monkeys; cynomolgus monkey, in vivo
  recovery of neutrophils, thrombocytes and red blood cell parameters: adequate recovery
Cynomolgus monkeys; cynomolgus monkeys
  safety profile: acceptable safety profile
[2]
  median elimination half-life: 22 to 52.8 h
[3]; [8]
  DCR: 47%
  Objective Response Rate (ORR) (confirmed): 11%
[3]; [9]
  DCR: 50%
  ORR (confirmed): 13.8%
[3]; [10]
  patients with BoR of PD: 7
  patients with BoR of SD: 12
  patients with BoR of confirmed PR: 4
[3]; [11]
  patients with BoR of PD: 7
  patients with BoR of SD: 13
  patients with BoR of confirmed PR: 5
[4]; Subject 401
  Treatment emerging events (grade, relatedness): urinary tract infection (G2, unrelated); also recorded: creatinine kinase increase (fluctuating between G1 and G2, possibly related); also recorded: muscle cramps (G1, possibly related); also recorded: worsening of cough (G2, unrelated); also recorded: ALT increase and AST increase (both G1 and unrelated); also recorded: dysphonia and left leg weakness, both events reported as G1 and possibly related
[4]; Subject 403
  Treatment emerging events (grade, relatedness): two episodes of nausea (both Gland possibly related); also recorded: skin and subcutaneous tissue disorder (G1, not related); also recorded: constipation (G2, related); also recorded: two episodes of anorexia (G1, first episode unrelated, second episode possibly related); also recorded: gastroesophageal reflux (G1, not related); also recorded: alopecia (G1, related); also recorded: AST increase (G1, possibly related)
[5]; 18 patients treated
  Disease Control Rate (DCR): 39%
  Objective Response Rate (unconfirmed): 5.5%
[5]; of 18 patients treated
  patients with Best Overall Response (BoR) of unconfirmed PR: 1
  patients with BoR of PD: 6
  patients with BoR of SD: 6
[6]; 1Q3W arm
  Maximum Tolerated Dose (MTD): 2.2 mg/kg
[6]; 1Q3W dosing regime
  Recommended Phase 2 Dose (RP2D): 2.2 mg/kg
[6]; 3Q4W arm
  Maximum Tolerated Dose (MTD): 1.0 mg/kg
[6]; 47 patients enrolled
  number of DLTs: 6
[6]; % of 47 patients
  Adverse Effects (any grade): constipation: 57%
  Adverse Effects (any grade): decreased appetite: 43%
  Adverse Effects (any grade): diarrhea: 47%
  Adverse Effects (any grade): fatigue: 64%
  Adverse Effects (any grade): nausea: 57%
  Adverse Effects (any grade): vomiting: 45%
[7]; Subject 401, C2D15
  decrease in sum of diameters compared to screening: 15%
[7]; Subject 401, C2D15, screening 26 mm
  sum of diameters of target lesions: 22 mm
[7]; Subject 401, C4D15
  decrease in sum of diameters compared to screening: 34.6%
[7]; Subject 401, C4D15, screening 26 mm
  sum of diameters of target lesions: 17 mm
[7]; Subject 401, C6D15
  decrease in sum of diameters compared to screening: 57.6%
[7]; Subject 401, C6D15, screening 26 mm
  sum of diameters of target lesions: 11 mm
[7]; Subject 403, C2D15
  decrease in sum of diameters compared to screening: 19.3%
[7]; Subject 403, C2D15, screening 88 mm
  sum of diameters of target lesions: 71 mm
[7]; Subject 403, C4D15
  decrease in sum of diameters compared to screening: 35.2%
[7]; Subject 403, C6D15
  decrease in sum of diameters compared to screening: 36.4%
[7]; Subject 403, second post-baseline scan (C4D15), screening 88 mm
  sum of diameters of target lesions: 57 mm
[7]; Subject 403, third post-baseline scan (C6D15), screening 88 mm
  sum of diameters of target lesions: 56 mm
[7]; Subject 406, C2D15
  decrease in sum of diameters compared to screening: 46.8%
[7]; Subject 406, C2D15, screening 32 mm
  sum of diameters of target lesions: 17 mm
